Data: patent US20220386611A1, “NOVEL HETEROARYL-TRIAZOLE COMPOUNDS AS PESTICIDES” (Bayer Aktiengesellschaft, priority 2019, published 2022)

Columns and labels:
Type in all cases: in vivo
[1] = system: Musca domestica strain WHO-N; assay: Musca domestica test (MUSCDO surface treatment & contact assay); details: 24 hours after contact, read-out: efficacy (mortality)
Description: Musca domestica Test (MUSCDO Surface Treatment & Contact Assay)
(§1) Solvent: Aceton+2000 ppm rapeseed oil methyl ester (RME)
In order to produce a sufficient, active ingredient containing solution it is necessary to solve the test compound in the solvent-mix (acetone at 2 mg/ml/RME 2000 ppm). This solution is pipetted onto a glazed tile and after evaporation of the acetone, adult flies of the species Musca domestica strain WHO-N are placed onto the dried surface. The exposure time is 30 minutes. Mortality in percent (%) is determined 24 hours after contact of the insects to the treated surface. 100% mortality means that all tested insects are dead, whereas 0% means that no insect died.

[2] = system: larvae of the banded cucumber beetle (Diabrotica balteata); assay: Diabrotica balteata spray test; details: 168 h, 100 g/ha (=32 μg/well), after 7 days, wheat seeds, read-out: efficacy (seedlings grown like untreated, uninfected control)
Description: Diabrotica balteata—spray test
Solvent: 78.0 parts by weight of acetone
1.5 parts by weight of dimethylformamide
(§2) Emulsifier: alkylarylpolyglycol ether
(§3) To produce a suitable preparation of active compound, 1 part by weight of active compound is mixed with the stated amount of solvent, and the concentrate is diluted with water, containing an emulsifier concentration of 1000 ppm, to the desired concentration. Further test concentrations are prepared by dilution with emulsifier containing water.
Soaked wheat seeds (Triticum aestivum) are placed in a multiple well plate filled with agar and some water and are incubated for 1 day to germinate (5 seeds per well). The germinated wheat seeds are sprayed with a test solution containing the desired concentration of the active ingredient. Afterwards each unit is infected with 10-20 larvae of the banded cucumber beetle (Diabrotica balteata).
After 7 days efficacy in % is determined. 100% means all the seedlings have grown up like in the untreated, uninfected control; 0% means none of the seedlings have grown.

[3] = system: Rhipicephalus microplus larvae (strain Parkhurst, resistant against synthetic pyrethroids); assay: Rhipicephalus (Boophilus) microplus in-vitro contact test, larval cattle tick; details: 5 μg/cm^2 (=500 g/ha), after 48 hours, read-out: efficacy (larvae dead or moribund)
Description: Rhipicephalus (Boophilus) Microplus—In-Vitro Contact Tests Larval Cattle Tick (Strain Parkhurst, Resistant Against Synthetic Pyrethroids)
(§4) 9 mg compound is solved in 1 mL acetone and diluted with acetone to the desired concentration. 250 μL of the test solution is filled in 25 mL glass test tubes and homogeneously distributed on the inner walls by rotation and tilting on a shaking device (2 h at 30 rpm). With a compound concentration of 900 ppm, an inner surface of 44.7 cm^2 and a homogeneous distribution, a dose of 5 μg/cm^2 is achieved.
After the solvent has evaporated, each test tube is filled with 20-50 cattle tick larvae (Rhipicephalus microplus), closed with a perforated lid and incubated in a horizontal position at 85% relative humidity and 27° C. in an incubator. After 48 hours efficacy is determined. The larvae are patted on the ground of the tubes and negative geotactic behaviour is recorded.
An efficacy of 100% means all larvae are dead or moribund; 0% means no larvae are dead or moribund.

[4] = system: fall armyworm larvae (Spodoptera frugiperda); assay: Spodoptera frugiperda spray test; details: in Zea mays, 168 h
Description: Spodoptera frukiperda—Spray Test
Solvent: 78.0 parts by weight acetone • 1.5 parts by weight dimethylformamide
as §2
To produce a suitable preparation of active compound, 1 part by weight of active compound is mixed with the stated amount of solvents and is diluted with water, containing an emulsifier concentration of 1000 ppm, to the desired concentration. Further test concentrations are prepared by dilution with emulsifier containing water.
Maize (Zea mays) leaf sections are sprayed with a preparation of the active ingredient of the desired concentration. Once dry, the leaf sections are infested with fall armyworm larvae (Spodoptera frugiperda).
After 7 days mortality in % is determined. 100% means all caterpillars have been killed and 0% means none of the caterpillars have been killed.

[5] = system: Aedes aegypti strain MONHEIM; assay: Aedes aegypti test (AEDSAE surface treatment & contact assay); details: 24 hours after contact, read-out: efficacy (mortality); for mortality at 20 mg/m2: surface concentration 20 mg/m^2, 30 minutes exposure
Description: Aedes Aegypti Test (AEDSAE Surface Treatment & Contact Assay)
as §1
(§5) In order to produce a sufficient, active ingredient containing solution it is necessary to solve the test compound in the solvent-mix (acetone at 2 mg/ml/RME 2000 ppm). This solution is pipetted onto a glazed tile and after evaporation of the acetone, adult mosquitoes of the species Aedes aegypti strain MONHEIM are placed onto the dried surface. The exposure time is 30 minutes. Mortality in percent (%) is determined 24 hours after contact of the insects to the treated surface. 100% mortality means that all tested insects are dead, whereas 0% means that no insect died.

[6] = system: adult brown dog ticks (Rhipicephalus sanguineus); assay: Rhipicephalus sanguineus in-vitro contact test with adult brown dog ticks; details: 5 μg/cm^2 (=500 g/ha), after 48 hours, read-out: efficacy (ticks dead or moribund)
Description: Rhipicephalus sanguineus—In-Vitro Contact Tests with Adult Brown Dog Ticks
as §4
After the solvent has evaporated, each test tube is filled with 5-10 adult brown dog ticks (Rhipicephalus sanguineus), closed with a perforated lid and incubated in a lying position at room temperature and relative humidity. After 48 hours efficacy is determined. The ticks are patted on the ground of the tubes and are incubated on a heating plate at 45-50° C. for at most 5 minutes. Immotile or uncoordinated moving ticks, which are not able to escape the heat by climbing upwards, are marked as dead or moribund.
An efficacy of 100% means all ticks are dead or moribund; 0% means no ticks are dead or moribund.

[7] = system: Blattella germanica strain PAULINIA; assay: Blattella germanica test (BLTTGE surface treatment & contact assay); details: surface concentration 20 mg/m^2, 30 minutes exposure, 24 hours after contact, read-out: efficacy (mortality)
Description: Blattella germanica Test (BLTTGE Surface Treatment & Contact Assay)
as §1
In order to produce a sufficient, active ingredient containing solution it is necessary to solve the test compound in the solvent-mix (acetone at 2 mg/ml/RME 2000 ppm). This solution is pipetted onto a glazed tile and after evaporation of the acetone, adult animals of the species Blattella germanica strain PAULINIA are placed onto the dried surface. The exposure time is 30 minutes. Mortality in percent (%) is determined 24 hours after contact of the insects to the treated surface. 100% mortality means that all tested insects are dead, whereas 0% means that no insect died.

[8] = system: adult engorged female ticks (Rhipicephalus microplus); assay: Rhipicephalus (Boophilus) microplus injection test; details: 168 h, after 7 days, read-out: efficacy (infertile eggs); for pest or weed control at 0.004 mg: 4 μg/animal
Description: Rhipicephalus (Boophilus) microplus—Injection Test
(§6) Solvent: dimethyl sulfoxide
To produce a suitable preparation of active compound, 10 mg of active compound are dissolved in 0.5 mL solvent, and the concentrate is diluted with solvent to the desired concentration.
Five adult engorged female ticks (Rhipicephalus microplus) are injected with 1 μL compound solution into the abdomen. The ticks are transferred into replica plates and incubated in a climate chamber.
After 7 days egg deposition of fertile eggs is monitored. Eggs where fertility is not visible are stored in a climate chamber till hatching after about 42 days. An efficacy of 100% means all eggs are infertile; 0% means all eggs are fertile.

[9] = system: adult unfed cat fleas (Ctenocephalides felis); assay: Ctenocephalides felis oral test; details: 48 h
Description: Ctenocephalides felis—Oral Test
as §6
To produce a suitable preparation of active compound, 10 mg of active compound are dissolved in 0.5 ml solvent, and the concentrate is diluted with cattle blood to the desired concentration.
Approximately 20 adult unfed cat fleas (Ctenocephalides felis) are placed in flea chambers. The blood chamber, sealed with parafilm on the bottom, are filled with cattle blood supplied with compound solution and placed on the gauze covered top of the flea chamber, so that the fleas are able to suck the blood. The blood chamber is heated to 37° C. whereas the flea chamber is kept at room temperature.
After 2 days mortality in % is determined. 100% means all the fleas have been killed; 0% means none of the fleas have been killed.

[10] = system: green peach aphid (Myzus persicae); assay: Myzus persicae oral test; details: 120 h
Description: Solvent: 100 parts by weight acetone
To produce a suitable preparation of active compound, 1 part by weight of active compound is mixed with the stated amount of solvent, and the concentrate is diluted with water to the desired concentration. 50 μL compound solution is filled in microtiter plates and 150 μL IPL41 insect medium (33%+15% sugar) is added to obtain a total volume of 200 μL per well. Afterwards the plates are sealed with parafilm through which a mixed population of the green peach aphid (Myzus persicae) can suck on the compound preparation.
After 5 days mortality in % is determined. 100% means all aphids have been killed and 0% means none of the aphids have been killed.

[11] = system: larvae of the southern green stink bug (Nezara viridula); assay: Nezara viridula spray test; details: 96 h, after 4 days, barley plants
Description: Nezara viridula—Spray Test
Solvent: 78.0 parts by weight of acetone • • 1.5 parts by weight of dimethylformamide
as §2, §3
Barley plants (Hordeum vulgare) infested with larvae of the southern green stink bug (Nezara viridula) are sprayed with a test solution containing the desired concentration of the active ingredient.
After 4 days mortality in % is determined. 100% means all the stink bugs have been killed; 0% means none of the stink bugs have been killed.

[12] = system: adult cat fleas (Ctenocephalides felis); assay: Ctenocephalides felis in-vitro contact test, adult cat flea; details: after 48 hours, read-out: efficacy (fleas dead or moribund); for pest or weed control at 1 µg/cm2, 100 g/ha: 1 μg/cm^2 (=100 g/ha); for pest or weed control at 5 µg/cm2, 500 g/ha: 5 μg/cm^2 (=500 g/ha)
Description: Ctenocephalides felis—In-Vitro Contact Tests Adult Cat Flea 9 mg compound is solved in 1 mL acetone and diluted with acetone to the desired concentration. 250 μL of the test solution is filled in 25 mL glass test tubes and homogeneously distributed on the inner walls by rotation and tilting on a shaking device (2 h at 30 rpm). With a compound concentration of 900 ppm, an inner surface of 44.7 cm^2 and a homogeneous distribution, a dose of 5 μg/cm^2 is achieved.
After the solvent has evaporated, each test tube is filled with 5-10 adult cat fleas (Ctenocephalidesfelis), closed with a perforated lid and incubated in a lying position at room temperature and relative humidity.
After 48 hours efficacy is determined. The fleas are patted on the ground of the tubes and are incubated on a heating plate at 45-50° C. for at most 5 minutes. Immotile or uncoordinated moving fleas, which are not able to escape the heat by climbing upwards, are marked as dead or moribund.
An efficacy of 100% means all fleas are dead or moribund; 0% means no fleas are dead or moribund.

[13] = system: Anopheles funestus strain FUMOZ-R; assay: Anopheles funestus test (ANPHFU surface treatment & contact assay); details: surface concentration 20 mg/m^2, 30 minutes exposure, 24 hours after contact, read-out: efficacy (mortality)
Description: Anopheles funestus Test (ANPHFU Surface Treatment & Contact Assay)
as §1
as §5, with “Anopheles funestus” for “Aedes aegypti”, “FUMOZ-R (Hunt et al., Med. Vet. Entomol. 2005 September; 19(3): 271-275)” for “MONHEIM”

[14] = surface concentration 4 mg/m^2, 30 minutes exposure

Row | SMILES | mortality at 4 mg/m2 [1, 14] [%] | mortality at 20 mg/m2 ([1]; surface concentration 20 mg/m^2, 30 minutes exposure) [%] | pest or weed control at 32 µg/disc, 100 g/ha [2] [%] | pest or weed control at 5 µg/cm2 [3] [%] | mortality at 100 g/ha [4] [%] | mortality at 20 mg/m2 [5] [%] | pest or weed control at 5 µg/cm2, 500 g/ha [6] [%] | mortality at 20 mg/m2 [7] [%] | pest or weed control at 0.004 mg [8] [%] | pest or weed control at 0.02 mg ([8]; 20 μg/animal) [%] | mortality at 100 ppm [9] [%] | mortality at 4 ppm [10] [%] | mortality at 100 g/ha [11] [%] | mortality at 4 mg/m2 [5, 14] [%] | pest or weed control at 1 µg/cm2, 100 g/ha [12] [%] | pest or weed control at 5 µg/cm2, 500 g/ha [12] [%] | mortality at 20 mg/m2 [13] [%]
1 | CC(NC(=O)c1cc(Br)cc(C(F)(F)F)c1)c1nc(Cl)nn1-c1ncccn1 (stereo not drawn) [Example I-003] | 80 to 100 | 80 to 100 | 100 | 100 | 100 | 80 to 100 | 100 | 80 to 100 | 100 | 100 | 100 | 100 | – | – | – | – | –
2 | CC(NC(=O)c1cc(Cl)nc(C(F)(F)F)c1)c1nc(Cl)nn1-c1ncccn1 (stereo not drawn) [Example I-008] | – | – | 80 | 100 | – | – | 100 | – | 100 | – | 100 | – | 100 | 80 to 100 | 90 | 90 | –
3 | CC(NC(=O)c1cc(Cl)cc(C(F)(F)F)c1)c1nc(Br)nn1-c1ncccn1 (stereo not drawn) [Example I-016] | – | – | 100 | 80 | 100 | 80 to 100 | – | 80 to 100 | 100 | – | 100 | 100 | – | – | – | – | 80 to 100
4 | CC(NC(=O)c1cc(Cl)nc(C(F)(F)F)c1)c1nc(I)nn1-c1ncccn1 (stereo not drawn) [Example I-024] | – | – | 100 | 100 | – | – | 80 | – | – | – | – | – | 100 | – | 80 | 90 | –
